According to US11845803B2, “Combination therapies for treatment of BCMA-related cancers and autoimmune disorders” (Fred Hutchinson Cancer Center, priority 2017, dated 2023):

Tests used:
[1] = test system: myeloma cell lines (8226, U266B1, MM1.R, H929); experiment: Surface BCMA expression on myeloma cell lines incubated with GSI, flow cytometry; format: cell-based, human
Experimental: (A) Cell surface BCMA was measured on four myeloma cell lines (8226, U266B1, MM1.R, H929) by flow cytometry with an anti-BCMA monoclonal antibody before, and 5 hours after (see diagrams), incubation of the myeloma cell lines with GSI RO4929097 in a range of concentrations from 0 μM (DMSO control) to 1.0 μM. (E) U266 myeloma cells were incubated for 1, 3, 5 and 24 hours in the presence of various concentrations of GSI RO429097 (0.01 μM, 0.1 μM and 1.0 μM) and evaluated for surface BCMA expression by flow cytometry. […] (F) Fold change of surface BCMA expression on cell lines (MM1R=triangle; U266=square; 8226=circle) cultured in 1 μM GSI over time. GSI was re-administered as a half media change every 2 days. Fold change in BCMA is defined as Treated (MFIBCMA-MFIiso)/Control (MFIBCMA-MFIiso). Data is representative of at least 2 independent experiments. To examine the effect of γ-secretase inhibition on BCMA levels on myeloma cells, γ-secretase inhibitor (GSI) RO4929097 was used. […] To examine the effect of GSI on surface BCMA expression kinetics, U266 myeloma cells were incubated for 1, 3, 5 and 24 hours in the presence of various concentrations of GSI RO429097 (0.01 μM, 0.1 μM and 1.0 μM) and evaluated for cell surface BCMA expression by flow cytometry. […] The upregulation persisted over 7 days of culture in 1.0 μM GSI (FIG. 3F). Next, the effect of removing GSI from MM cell culture was examined. […] Finally, the viability of the tested MM cell lines was not affected by addition of 1.0 μM RO429097 to culture (FIG. 3L).

[2] = test system: CD138+ primary myeloma cells; experiment: Surface BCMA and other surface molecules on primary patient myeloma cells incubated with GSI, flow cytometry; format: cell-based, human
Experimental: (N) Fold change in BCMA on primary myeloma cells (n=7) cultured with vary amounts of GSI for 4 h. Primary and cell lines were cultured at 0.5×10^6 cells/mL. Fold change in BCMA is defined as Treated (MFIBCMA-MFIiso)/Control (MFIBCMA-MFIiso). Data is representative of 3 independent experiments with T cells derived from different donors. […] (R) CD138+ primary myeloma cells were enriched from patient bone marrow samples, incubated for 3 hours in the presence of various concentrations of GSI RO429097 (0.01 μM to 10 μM) and evaluated for surface BCMA expression by flow cytometry. BCMA mean fluorescence intensity (MFI) on tumor cells is presented as fold increase over that observed on tumor cells incubated without RO429097. There is an observed dose dependent upregulation of BCMA. The effect of GSI on BCMA expression was then tested on primary myeloma samples from patients. CD138^+ myeloma cells were enriched from patient bone marrow samples, incubated for 3 hours in the presence of various concentrations of GSI RO429097 (0.01 μM to 10 μM) and evaluated for surface BCMA expression by flow cytometry (FIGS. 3M and 3R). BCMA mean fluorescence intensity (MFI) on tumor cells is presented as fold increase over tumor cells incubated without RO4929097.

[3] = test system: myeloma cell lines (MM1.R, U266 and 8226); experiment: Soluble BCMA (sBCMA) in culture supernatant of myeloma cell lines with GSI, ELISA; format: cell-based, human
Experimental: (I) U266 myeloma cells were washed and plated in culture media in the presence of various concentrations of GSI RO429097 (0.01 μM, 0.1 μM and 1.0 μM). The media supernatant was harvested after 1, 3, 5 and 24 hours and assayed for soluble BCMA (sBCMA) by ELISA. […] To test the effect of GSI on BCMA shedding in MM, three different myeloma cell lines (MM1.R, U266 and 8226) were washed and plated in culture media for 24 hours in the presence of various concentrations of GSI RO429097 (0.01 μM, 0.1 μM and 1.0 μM). The media supernatant was harvested and assayed for sBCMA by ELISA. sBCMA levels decreased in the supernatant in the presence of a GSI in a dose dependent manner (FIGS. 3G & 3H). To examine the effect on soluble BCMA (sBCMA) levels over time, U266 cells were washed and plated in culture media for 1, 3, 5 and 24 hours in the presence of various concentrations of GSI RO429097 (0.01 μM, 0.1 μM and 1.0 μM). The media supernatant was harvested and assayed for soluble BCMA (sBCMA) by ELISA. […] Next, the effect of removing GSI from MM cell culture was examined. […] Finally, the viability of the tested MM cell lines was not affected by addition of 1.0 μM RO429097 to culture (FIG. 3L).

primary human T cells = experiment: Primary human T cell viability in GSI, trypan blue dye exclusion; format: cell-based; conditions: 0.01 μM to 100 μM; 24 hours
Experimental: (B) Primary human T cells were cultured in GSI RO4929097 at concentrations ranging from 0.01 μM to 100 μM and viability was measured by trypan blue dye exclusion after 24 hours. There was no effect of GSI, at any concentration, on T cell viability.

[4] = U266, 1, 3, 5 and 24 hours, 0.01, 0.1 and 1.0 μM

Compound: CC(C)(C(=O)NCC(F)(F)C(F)(F)F)C(=O)N[C@@H]1C(=O)Nc2ccccc2-c2ccccc21 [RO4929097]
- persistence of surface BCMA upregulation in culture ([1]; 1.0 μM GSI, GSI re-administered every 2 days): ≥ 7 days
- surface BCMA on myeloma cell lines ([1]; GSI 0.001 μM to 1.0 μM): rapidly upregulated
- time of peak increase in surface BCMA expression ([1]; U266, 0.01-1.0 μM GSI): 5 h
- cell surface BCMA expression on U266 cells [1, 4]: increased in a dose-dependent manner
- surface BCMA levels following removal of GSI ([1]; after removal of 1.0 μM GSI): decreased
- surface BCMA (MFI, fold increase) on primary myeloma cells ([2]; 3 hours, 0.01 μM to 10 μM): dose-dependent upregulation
- levels of other cell surface molecules (CS1, CD86, PD-L1, CD80, CD38) ([2]; primary myeloma cells, various GSI concentrations): no effect
- effect of GSI on surface BCMA shedding (reversibility) ([3]; 1.0 μM GSI removed or continued): reversible inhibitory effect
- sBCMA levels in supernatant ([3]; MM1.R, U266 and 8226, 24 hours, 0.01, 0.1 and 1.0 μM): decreased
- GSI concentration at which BCMA release into supernatant was decreased ([3]; U266, 1, 3, 5 and 24 hours): at least 0.01 μM
- soluble BCMA levels in supernatant over time [3, 4]: dose-dependent decrease
- supernatant sBCMA following removal of GSI ([3]; after removal of 1.0 μM GSI vs continued GSI): increased when the GSI was removed
- T cell viability (primary human T cells): no effect
